What was measured:
[1] = Antiproliferative activity against P-gp overexpressing human KBVIN cells assessed as reduction in cell viability after 72 hrs by SRB assay; assay type: functional
[2] = tested on: A549; assay: Antiproliferative activity against human A549 cells assessed as reduction in cell viability after 72 hrs by SRB assay; assay type: functional, cell-based; details: A549, 72 h
[3] = tested on: KB; assay: Antiproliferative activity against human KB cells assessed as reduction in cell viability after 72 hrs by SRB assay; assay type: functional, cell-based
[4] = tested on: MDA-MB-231; assay: Antiproliferative activity against triple-negative human MDA-MB-231 cells assessed as reduction in cell viability after 72 hrs by SRB assay; assay type: functional, cell-based; details: MDA-MB-231, 72 h

Structure (SMILES)	IC50 [1]	IC50 [2]	IC50 [3]	IC50 [4]
C=C(C)C(O)Cc1c(O)c(C(C)=O)c(O)c(C(CC(C)C)c2c(O)c(CC=C(C)C)c(OC)c(C(C)=O)c2O)c1O (racemic) [ACROVESTENOL]	6.5 µM	> 10 µM	6 µM	10 µM
COc1c(CC=C(C)C)c(O)c(C(CC(C)C)c2c(O)c(CC=C(C)C)c(O)c(C(C)=O)c2O)c(O)c1C(C)=O (racemic)	4.4 µM	6.1 µM	4.9 µM	6.4 µM
CC(=O)O[C@H]1C(=O)[C@@]2(C)[C@H]([C@H](OC(=O)c3ccccc3)[C@]3(O)C[C@H](OC(=O)[C@H](O)[C@@H](NC(=O)c4ccccc4)c4ccccc4)C(C)=C1C3(C)C)[C@]1(OC(C)=O)CO[C@@H]1C[C@@H]2O [PACLITAXEL]	4.53 µM	0.0063 µM	0.0074 µM	0.0107 µM
COc1c(CC=C(C)C)c(O)c(C(CC(C)C)c2c(O)c3c(c(C(C)=O)c2O)OC(C(C)(C)O)C3)c(O)c1C(C)=O (racemic)	> 10 µM	> 10 µM	> 10 µM	> 10 µM
COc1c(CC=C(C)C)c(O)c(C(CC(C)C)c2c(O)c(C(C)=O)c(O)c3c2OC(C)(C)C(O)C3)c(O)c1C(C)=O (racemic)	> 10 µM	> 10 µM	> 10 µM	> 10 µM
COc1c(CC=C(C)C)c(O)c(Cc2c(O)cc(O)c(C(C)=O)c2O)c(O)c1C(C)=O	5.1 µM	5.6 µM	5.2 µM	6.9 µM
COc1c(CC=C(C)C)c(O)c(C(CC(C)C)c2c(O)cc(O)c(C(C)=O)c2O)c(O)c1C(C)=O (stereo not drawn)	5 µM	4.9 µM	5.2 µM	5.8 µM
COc1c(CC=C(C)C)c(O)c(Cc2c(O)c(CC=C(C)C)c(OC)c(C(C)=O)c2O)c(O)c1C(C)=O	5.5 µM	6.4 µM	5.5 µM	5.9 µM
COc1c(CC=C(C)C)c(O)c(C(CC(C)C)c2c(O)c3c(c(C(C)=O)c2O)OC(C)(C)C(O)C3)c(O)c1C(C)=O (racemic)	> 10 µM	> 10 µM	> 10 µM	> 10 µM
COc1c(CC=C(C)C)c(O)c(C(CC(C)C)c2c(O)c(CC=C(C)C)c(OC)c(C(C)=O)c2O)c(O)c1C(C)=O	8.4 µM	> 10 µM	7.6 µM	> 10 µM
COc1c(CC=C(C)C)c(O)c(C(CC(C)C)c2c(O)c3c(c(C(C)=O)c2O)OC(C)(C)C=C3)c(O)c1C(C)=O (racemic)	4.3 µM	5.9 µM	4.9 µM	5.4 µM
COc1c(CC=C(C)C)c(O)c(C(CC(C)C)c2c(O)c(C=O)c(O)c(C(C)=O)c2O)c(O)c1C(C)=O (racemic)	> 10 µM	> 10 µM	> 10 µM	> 10 µM

From ChEMBL document CHEMBL4414593, “Prenylated Acetophloroglucinol Dimers from Acronychia trifoliolata: Structure Elucidation and Total Synthesis” (J Nat Prod, 2019)
